Source: PMC7419507, “In vitro Cas9-assisted editing of modular polyketide synthase genes to produce desired natural product derivatives” (Nature Communications, 2020)
Values joined by “and” are separate entries in the source; they are usually repeats but may differ in a detail not shown here. Identical values can stand only once.

How the values were obtained:
[1] = Cytotoxicity assay (CellTiter-Glo, 72 h), MESO-1; assay type: cell-based; conditions: human, MESO-1 malignant pleural mesothelioma cells, raw replicate data, read-out: MESO1 viability (%)
Method in brief: (§1)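 Following 4 h attachment at 1000 cells/well, the three lines received serially halved compound doses (DMSO 0.5%) for 72 h at 37 °C under 5% CO2, with cell viability then determined by CellTiter-Glo.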

[2] = test system: malignant pleural mesothelioma MESO-1 cells; experiment: Cytotoxicity assay (CellTiter-Glo, 72 h), MESO-1; assay type: cell-based; conditions: raw replicate data
Method in brief: as §1

## CO[C@@H]1C[C@H](C[C@@H](C)[C@@H]2CC(=O)[C@H](C)/C=C(\C)[C@@H](O)[C@@H](OC)C(=O)[C@H](C)C[C@H](C)/C=C/C=C/C=C(\C)[C@H](O)C[C@@H]3CC[C@@H](C)[C@@](O)(O3)C(=O)C(=O)N3CCCC[C@H]3C(=O)O2)CC[C@H]1O [Compound 17, (16R)-16-O-demethyl rapamycin]
[1]; conc 9.53674e-5 uM
  viability at 72 h, 9.53674e-05 uM: 103%
[1]; conc 0.000190735 uM
  viability at 72 h, 0.000190735 uM: 89.1%
[1]; conc 0.00038147 uM
  viability at 72 h, 0.00038147 uM: 100%
[1]; conc 0.000762939 uM
  viability at 72 h, 0.000762939 uM: 97.1%
[1]; conc 0.00152588 uM
  viability at 72 h, 0.00152588 uM: 98.3%
[1]; conc 0.00305176 uM
  viability at 72 h, 0.00305176 uM: 92.9%
[1]; conc 0.00610352 uM
  viability at 72 h, 0.00610352 uM: 89.6%
[1]; conc 0.012207 uM
  viability at 72 h, 0.012207 uM: 83.5%
[1]; conc 0.0244141 uM
  viability at 72 h, 0.0244141 uM: 86.9%
[1]; conc 0.0488281 uM
  viability at 72 h, 0.0488281 uM: 85.1%
[1]; conc 0.0976562 uM
  viability at 72 h, 0.0976562 uM: 78.9%
[1]; conc 0.195312 uM
  viability at 72 h, 0.195312 uM: 71.5%
[1]; conc 0.390625 uM
  viability at 72 h, 0.390625 uM: 79.6%
[1]; conc 0.78125 uM
  viability at 72 h, 0.78125 uM: 73.1%
[1]; conc 1.5625 uM
  viability at 72 h, 1.5625 uM: 71.7%
[1]; conc 3.125 uM
  viability at 72 h, 3.125 uM: 72.9%
[1]; conc 6.25 uM
  viability at 72 h, 6.25 uM: 74.2%
[1]; conc 12.5 uM
  viability at 72 h, 12.5 uM: 72.1%
[1]; conc 25 uM
  viability at 72 h, 25 uM: 67.4%
[1]; conc 50 uM
  viability at 72 h, 50 uM: 61.5%
[2]; conc 9.53674e-5 uM
  MESO1 viability (%): 101.2% and 92.1%
[2]; conc 0.000190735 uM
  MESO1 viability (%): 91.6% and 98.7%
[2]; conc 0.00038147 uM
  MESO1 viability (%): 104.8% and 96.5%
[2]; conc 0.000762939 uM
  MESO1 viability (%): 94.3% and 95.5%
[2]; conc 0.00152588 uM
  MESO1 viability (%): 93.6% and 93.5%
[2]; conc 0.00305176 uM
  MESO1 viability (%): 90.4% and 91.1%
[2]; conc 0.00610352 uM
  MESO1 viability (%): 88.7% and 90.9%
[2]; conc 0.012207 uM
  MESO1 viability (%): 91.2%
[2]; conc 0.0244141 uM
  MESO1 viability (%): 80.2% and 88.3%
[2]; conc 0.0488281 uM
  MESO1 viability (%): 80.6% and 75.2%
[2]; conc 0.0976562 uM
  MESO1 viability (%): 77.6% and 79.5%
[2]; conc 0.195312 uM
  MESO1 viability (%): 74.7% and 70.5%
[2]; conc 0.390625 uM
  MESO1 viability (%): 76.8% and 75.4%
[2]; conc 0.78125 uM
  MESO1 viability (%): 70.1% and 72.2%
[2]; conc 1.5625 uM
  MESO1 viability (%): 74.3% and 71.9%
[2]; conc 3.125 uM
  MESO1 viability (%): 66.5% and 67.5%
[2]; conc 6.25 uM
  MESO1 viability (%): 73.9% and 73.5%
[2]; conc 12.5 uM
  MESO1 viability (%): 65.3% and 66.5%
[2]; conc 25 uM
  MESO1 viability (%): 64.8% and 66.6%
[2]; conc 50 uM
  MESO1 viability (%): 62.7% and 65.8%
